Earlier results as cited in patent US20260191206A1, “SYNERGISTIC INSECTICIDAL COMPOSITION COMPRISING PHTHALIMIDE COMPOUNDS AND THE USE THEREOF” (COUNCIL OF SCIENTIFIC AND INDUSTRIAL RESEARCH AN INDIAN …, priority 2022, published 2026).

System: trehalose 6-phosphate phosphatase
Details: Cross et al, Sci Rep 9, 16165 (2019)

For `O=C1c2ccccc2C(=O)N1Sc1ccccc1` [NPP, N-(Phenylthio) phthalimide], the “inhibition of trehalose 6-phosphate phosphatase” value is given as “inhibit”.
